Data set [1] concerns OVCAR-3 subcutaneous tumors. Nature of the data set: subcutaneous OVCAR-3 xenograft model, tumor growth. As to conditions: for Tumor Regression (number of animals): groups of 8 mice. In kind it is in vivo, NCr nu/nu mice. As for the experimental part: Model of Human Cancer: A subcutaneous OVCAR-3 xenograft model was used.
Animals: Female NCr nu/nu (“nude”) mice (Taconic Farms, Germantown, N.Y.) 6-7 weeks old were used for all studies. All animals were housed in sterile micro-isolators, and were given autoclaved food and water ad libitum.
OVCAR-3 cells were serially propagated in vivo 3 times within the peritoneal cavities of NCr nu/nu mice, followed by subcutaneous implantation in the flank of the mice. […] Mice were injected with 0.2 ml volume of the cell suspension for a final dose of 3×10^6 cells. Beginning approximately 10 days post-implantation, palpable tumors were measured with electronic calipers (Fowler Instruments, Newton, Mass.) across two perpendicular dimensions. Mice were randomly sorted into groups of eight based on tumor volume. […] Tumor measurements and observations were recorded twice a week. Tumor volume was calculated using the standard formula (Length×Width^2)×0.5.
Control groups consisted of mice injected with 0.9% sodium chloride alone. […] Tumors were measured two times per week. Mice were sacrificed when the tumor volume was greater than 10% of their body weight.
Tumor volumes were compared by Mann-Whitney analysis using Prizm software (GraphPad Software, Inc.). Regression was defined as beginning when a tumor reached <50% of its starting volume and ending when the tumor reached >50% of its initial volume. Partial regression (PR) was defined as when a tumor decreased by 50% or more in volume for at least 7 days, and then later regrew. Complete regression (CR) was defined as when a tumor disappeared for at least 7 days.

The conditions of data set [2]: nude mice; cited from earlier work.
Where [3] appears, read: paclitaxel 10 mg/kg weekly for three weeks (q3d7).

The text below walks through data of patent US20090226367A1, “COMPOSITIONS COMPRISING AN ANTI-CA125 ANTIBODY AND A CYTOTOXIC COMPOUND AND THEIR USE FOR THE TREATMENT OF CANCER” (priority 2005, published 2009).

As to `CC(=O)O[C@H]1C(=O)[C@@]2(C)[C@H]([C@H](OC(=O)c3ccccc3)[C@]3(O)C[C@H](OC(=O)[C@H](O)[C@@H](NC(=O)c4ccccc4)c4ccccc4)C(C)=C1C3(C)C)[C@]1(OC(C)=O)CO[C@@H]1C[C@@H]2O` [Paclitaxel, paclitaxel], the “% T/C” value is 58% in data set [1] (paclitaxel 10 mg/kg single dose (day 0), day 40, relative to saline control) and 29% in data set [1] (paclitaxel 10 mg/kg weekly for three weeks (q3d7), day 40). Besides, the “Tumor Regression (number of animals)” value in data set [1] (paclitaxel 10 mg/kg single dose (day 0)) is reported as “no animals had observable regression of tumors”; in data set [1] (setting [3]) it was 1. The “Duration (days) of tumor regression” value in data set [1] (setting [3]) came out at 14 days. In data set [1] (setting [3]), the “PR (partial regression, number of animals)” value turned out to be 1. The “animals demonstrating regression of tumors” value in data set [1] (three weekly treatments with 10 mg/kg paclitaxel) is 10%. Also, the MTD in data set [2] is given as over 30 mg/kg.
